Source: the kinase profiling compilation of Christmann-Franck et al. (2016)

How the values were obtained:
Test in all cases: KINOMEscan competition binding
Conditions in all cases: compound 10.0 µM
ACVR1 (human) = ACVR1 (human) (UniProt Q04771)
ACVR1B (human) = ACVR1B (human) (UniProt P36896)
AKT3 (human) = AKT3 (human) (UniProt Q9Y243)
AURKA (human) = AURKA (human) (UniProt O14965)
AXL (human) = AXL (human) (UniProt P30530)
[1] = system: BMX (human), P51813 [V600E]
BRSK1 (human) = BRSK1 (human) (UniProt Q8TDC3)
CDK14 (human) = CDK14 (human) (UniProt O94921)
CDK2 (human) = CDK2 (human) (UniProt P24941)
CDK4 CCND1 (human) = CDK4 CCND1 (human) (UniProt P11802+P24385)
CDKL2 (human) = CDKL2 (human) (UniProt Q92772)
CSNK1D (human) = CSNK1D (human) (UniProt P48730)
CSNK2A2 (human) = CSNK2A2 (human) (UniProt P19784)
DAPK3 (human) = DAPK3 (human) (UniProt O43293)
[2] = system: EGFR (human), P00533 [A750P; 747-749 del]
ICK (human) = ICK (human) (UniProt Q9UPZ9)
INSRR (human) = INSRR (human) (UniProt P14616)
IRAK3 (human) = IRAK3 (human) (UniProt Q9Y616)
[3] = target: JAK3 JH1 catalytic (human) (UniProt P52333)
LCK (human) = LCK (human) (UniProt P06239)
LRRK2 (human) = LRRK2 (human) (UniProt Q5S007)
MAPK14 (human) = MAPK14 (human) (UniProt Q16539)
MAPKAPK2 (human) = MAPKAPK2 (human) (UniProt P49137)
MARK1 (human) = MARK1 (human) (UniProt Q9P0L2)
MLTK (human) = MLTK (human) (UniProt Q9NYL2)
MYLK (human) = MYLK (human) (UniProt Q15746)
MYLK4 (human) = MYLK4 (human) (UniProt Q86YV6)
MYO3A (human) = MYO3A (human) (UniProt Q8NEV4)
NEK2 (human) = NEK2 (human) (UniProt P51955)
PAK2 (human) = PAK2 (human) (UniProt Q13177)
PIK3CA (human) = PIK3CA (human) (UniProt P42336)
[4] = system: PIK3CA (human), P42336 [M1043I]
PIK3CG (human) = PIK3CG (human) (UniProt P48736)
PRKAA1 (human) = PRKAA1 (human) (UniProt Q13131)
RPS6KA4 KD1 (human) = RPS6KA4 KD1 (human) (UniProt O75676)
SIK2 (human) = SIK2 (human) (UniProt Q9H0K1)
TEK (human) = TEK (human) (UniProt Q02763)
TYRO3 (human) = TYRO3 (human) (UniProt Q06418)
WEE2 (human) = WEE2 (human) (UniProt P0C1S8)
YES1 (human) = YES1 (human) (UniProt P07947)

MYLK (human), sequence (Q15746 whole entry, looked up): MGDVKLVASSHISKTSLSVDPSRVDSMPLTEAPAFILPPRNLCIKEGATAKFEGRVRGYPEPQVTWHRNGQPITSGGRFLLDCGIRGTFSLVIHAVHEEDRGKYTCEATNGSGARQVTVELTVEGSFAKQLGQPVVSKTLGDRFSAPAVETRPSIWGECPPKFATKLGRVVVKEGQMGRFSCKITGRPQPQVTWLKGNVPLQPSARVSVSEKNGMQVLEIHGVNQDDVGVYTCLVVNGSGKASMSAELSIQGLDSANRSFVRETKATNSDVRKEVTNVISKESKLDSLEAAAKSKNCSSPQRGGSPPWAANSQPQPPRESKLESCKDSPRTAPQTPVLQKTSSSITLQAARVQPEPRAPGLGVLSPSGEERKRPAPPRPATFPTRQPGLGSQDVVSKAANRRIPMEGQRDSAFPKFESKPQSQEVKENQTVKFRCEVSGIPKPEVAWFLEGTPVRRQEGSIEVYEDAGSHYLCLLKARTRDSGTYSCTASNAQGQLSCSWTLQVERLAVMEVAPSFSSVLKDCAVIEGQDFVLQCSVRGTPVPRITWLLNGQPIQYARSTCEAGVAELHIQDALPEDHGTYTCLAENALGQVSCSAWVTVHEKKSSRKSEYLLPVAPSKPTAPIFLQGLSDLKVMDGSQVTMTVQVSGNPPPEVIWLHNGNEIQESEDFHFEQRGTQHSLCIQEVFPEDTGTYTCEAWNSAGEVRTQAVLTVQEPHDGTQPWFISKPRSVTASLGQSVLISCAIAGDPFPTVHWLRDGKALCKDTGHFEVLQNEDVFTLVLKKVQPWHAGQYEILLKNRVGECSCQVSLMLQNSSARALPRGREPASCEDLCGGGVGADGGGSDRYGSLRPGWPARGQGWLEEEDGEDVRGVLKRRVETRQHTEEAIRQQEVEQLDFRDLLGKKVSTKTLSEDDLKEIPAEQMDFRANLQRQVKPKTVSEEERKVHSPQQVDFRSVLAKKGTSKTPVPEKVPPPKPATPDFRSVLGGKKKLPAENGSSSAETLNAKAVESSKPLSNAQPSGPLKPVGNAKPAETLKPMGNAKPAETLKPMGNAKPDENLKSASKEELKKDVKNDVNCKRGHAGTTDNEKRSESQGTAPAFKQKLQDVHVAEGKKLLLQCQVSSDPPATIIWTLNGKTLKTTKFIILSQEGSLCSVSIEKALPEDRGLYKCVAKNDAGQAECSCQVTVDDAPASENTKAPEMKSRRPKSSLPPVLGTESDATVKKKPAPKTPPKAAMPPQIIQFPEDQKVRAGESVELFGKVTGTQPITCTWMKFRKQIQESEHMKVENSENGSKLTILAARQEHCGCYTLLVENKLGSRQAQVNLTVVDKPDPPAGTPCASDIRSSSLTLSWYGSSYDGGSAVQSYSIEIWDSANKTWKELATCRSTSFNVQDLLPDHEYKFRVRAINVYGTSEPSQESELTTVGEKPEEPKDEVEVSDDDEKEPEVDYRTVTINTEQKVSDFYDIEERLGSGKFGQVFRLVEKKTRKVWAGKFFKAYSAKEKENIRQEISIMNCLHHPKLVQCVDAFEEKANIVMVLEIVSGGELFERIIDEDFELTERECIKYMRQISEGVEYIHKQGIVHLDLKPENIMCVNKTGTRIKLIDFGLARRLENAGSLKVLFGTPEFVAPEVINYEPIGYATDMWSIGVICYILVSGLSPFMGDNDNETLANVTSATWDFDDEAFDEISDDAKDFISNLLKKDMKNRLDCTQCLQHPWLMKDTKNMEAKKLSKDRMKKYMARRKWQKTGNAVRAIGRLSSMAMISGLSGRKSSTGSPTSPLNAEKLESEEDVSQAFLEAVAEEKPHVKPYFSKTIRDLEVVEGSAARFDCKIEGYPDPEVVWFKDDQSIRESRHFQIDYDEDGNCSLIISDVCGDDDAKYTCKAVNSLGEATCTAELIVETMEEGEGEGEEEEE
AXL (human), sequence (P30530 whole entry, looked up): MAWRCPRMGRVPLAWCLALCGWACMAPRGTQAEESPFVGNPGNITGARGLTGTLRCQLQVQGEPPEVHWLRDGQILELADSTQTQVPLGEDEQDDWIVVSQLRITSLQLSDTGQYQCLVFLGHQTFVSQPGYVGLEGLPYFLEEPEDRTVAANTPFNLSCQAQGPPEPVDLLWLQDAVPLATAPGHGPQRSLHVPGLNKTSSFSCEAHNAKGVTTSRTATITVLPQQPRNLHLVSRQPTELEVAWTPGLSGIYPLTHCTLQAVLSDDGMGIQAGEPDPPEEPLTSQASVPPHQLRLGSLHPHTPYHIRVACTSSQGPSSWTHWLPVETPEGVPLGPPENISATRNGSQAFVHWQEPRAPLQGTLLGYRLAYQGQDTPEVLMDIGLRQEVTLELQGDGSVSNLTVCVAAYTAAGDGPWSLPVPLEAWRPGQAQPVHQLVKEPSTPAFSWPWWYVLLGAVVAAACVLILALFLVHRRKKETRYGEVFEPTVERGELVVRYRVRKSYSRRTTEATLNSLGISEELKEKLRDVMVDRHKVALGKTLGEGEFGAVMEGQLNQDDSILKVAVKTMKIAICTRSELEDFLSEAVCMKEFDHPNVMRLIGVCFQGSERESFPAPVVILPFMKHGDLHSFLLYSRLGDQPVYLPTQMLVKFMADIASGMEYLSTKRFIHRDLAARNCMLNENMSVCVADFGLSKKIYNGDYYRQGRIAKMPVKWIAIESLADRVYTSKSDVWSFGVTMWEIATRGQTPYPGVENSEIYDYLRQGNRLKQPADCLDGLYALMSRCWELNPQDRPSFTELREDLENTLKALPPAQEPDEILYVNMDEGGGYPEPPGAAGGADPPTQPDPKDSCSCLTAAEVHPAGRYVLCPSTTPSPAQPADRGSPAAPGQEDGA
PAK2 (human), sequence (Q13177 whole entry, looked up): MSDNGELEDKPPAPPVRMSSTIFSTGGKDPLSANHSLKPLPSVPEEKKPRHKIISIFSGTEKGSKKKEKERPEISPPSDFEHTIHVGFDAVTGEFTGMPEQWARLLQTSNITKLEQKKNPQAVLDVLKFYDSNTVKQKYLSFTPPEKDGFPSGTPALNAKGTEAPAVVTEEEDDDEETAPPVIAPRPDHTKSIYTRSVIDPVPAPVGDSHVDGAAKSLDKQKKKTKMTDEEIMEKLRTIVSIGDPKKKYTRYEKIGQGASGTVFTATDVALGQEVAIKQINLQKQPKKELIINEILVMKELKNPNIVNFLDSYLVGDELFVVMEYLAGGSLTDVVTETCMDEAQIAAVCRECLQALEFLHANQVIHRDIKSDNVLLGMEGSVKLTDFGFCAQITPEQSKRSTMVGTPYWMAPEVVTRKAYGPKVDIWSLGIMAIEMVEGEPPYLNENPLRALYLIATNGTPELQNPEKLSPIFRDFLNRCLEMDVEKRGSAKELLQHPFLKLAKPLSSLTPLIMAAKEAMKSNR
SIK2 (human), sequence (Q9H0K1 whole entry, looked up): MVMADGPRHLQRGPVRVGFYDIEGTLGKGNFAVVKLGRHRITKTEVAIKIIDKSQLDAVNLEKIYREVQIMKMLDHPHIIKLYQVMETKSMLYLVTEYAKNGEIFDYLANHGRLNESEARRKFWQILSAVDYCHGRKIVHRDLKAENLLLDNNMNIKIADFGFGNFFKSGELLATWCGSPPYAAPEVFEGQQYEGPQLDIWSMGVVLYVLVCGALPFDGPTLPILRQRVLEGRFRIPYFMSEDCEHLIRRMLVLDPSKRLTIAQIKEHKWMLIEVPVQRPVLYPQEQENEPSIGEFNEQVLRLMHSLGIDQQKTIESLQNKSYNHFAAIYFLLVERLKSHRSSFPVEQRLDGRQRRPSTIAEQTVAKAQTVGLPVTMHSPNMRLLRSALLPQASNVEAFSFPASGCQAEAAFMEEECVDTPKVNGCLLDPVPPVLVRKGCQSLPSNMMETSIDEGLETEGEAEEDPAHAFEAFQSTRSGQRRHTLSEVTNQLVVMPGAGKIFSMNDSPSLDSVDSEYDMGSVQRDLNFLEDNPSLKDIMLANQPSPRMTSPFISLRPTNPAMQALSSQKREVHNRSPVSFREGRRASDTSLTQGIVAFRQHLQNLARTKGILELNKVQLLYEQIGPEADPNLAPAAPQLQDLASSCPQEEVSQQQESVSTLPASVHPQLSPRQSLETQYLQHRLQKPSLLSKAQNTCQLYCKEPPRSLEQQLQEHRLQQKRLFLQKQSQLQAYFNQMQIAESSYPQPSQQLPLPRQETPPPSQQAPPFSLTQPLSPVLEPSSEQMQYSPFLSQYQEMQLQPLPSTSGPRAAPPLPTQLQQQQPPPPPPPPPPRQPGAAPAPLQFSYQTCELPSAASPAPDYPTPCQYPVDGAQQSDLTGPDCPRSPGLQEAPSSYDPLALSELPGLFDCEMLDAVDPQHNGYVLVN
CDK14 (human), sequence (O94921 whole entry, looked up): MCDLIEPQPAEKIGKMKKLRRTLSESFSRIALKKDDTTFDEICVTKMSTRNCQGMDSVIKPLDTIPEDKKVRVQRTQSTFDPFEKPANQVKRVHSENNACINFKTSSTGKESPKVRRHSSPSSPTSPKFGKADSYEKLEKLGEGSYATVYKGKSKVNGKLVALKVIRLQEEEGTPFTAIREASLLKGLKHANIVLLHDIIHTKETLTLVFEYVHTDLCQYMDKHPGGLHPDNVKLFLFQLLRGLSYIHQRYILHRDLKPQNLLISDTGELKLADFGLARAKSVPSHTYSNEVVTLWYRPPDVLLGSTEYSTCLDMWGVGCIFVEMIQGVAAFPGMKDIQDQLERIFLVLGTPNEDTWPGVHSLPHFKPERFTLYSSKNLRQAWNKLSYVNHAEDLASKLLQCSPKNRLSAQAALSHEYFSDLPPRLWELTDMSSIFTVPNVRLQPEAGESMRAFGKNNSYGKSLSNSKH
CSNK2A2 (human), sequence (P19784 whole entry, looked up): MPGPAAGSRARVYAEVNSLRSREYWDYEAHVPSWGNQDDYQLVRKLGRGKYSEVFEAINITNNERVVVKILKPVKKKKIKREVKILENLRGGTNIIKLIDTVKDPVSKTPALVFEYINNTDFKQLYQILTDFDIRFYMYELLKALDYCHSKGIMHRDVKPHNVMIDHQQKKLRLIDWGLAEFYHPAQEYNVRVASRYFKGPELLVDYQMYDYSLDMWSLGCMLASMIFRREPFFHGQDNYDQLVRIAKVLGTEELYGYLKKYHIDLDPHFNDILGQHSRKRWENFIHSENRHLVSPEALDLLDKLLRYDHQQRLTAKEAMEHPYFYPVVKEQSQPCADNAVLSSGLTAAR

Compound	kinase still bound, per cent of control (ACVR1 (human))	kinase still bound, per cent of control (ACVR1B (human))	kinase still bound, per cent of control (AKT3 (human))	kinase still bound, per cent of control (AURKA (human))	kinase still bound, per cent of control (AXL (human))	kinase still bound, per cent of control [1]	kinase still bound, per cent of control (BRSK1 (human))	kinase still bound, per cent of control (CDK14 (human))	kinase still bound, per cent of control (CDK2 (human))	kinase still bound, per cent of control (CDK4 CCND1 (human))	kinase still bound, per cent of control (CDKL2 (human))	kinase still bound, per cent of control (CSNK1D (human))	kinase still bound, per cent of control (CSNK2A2 (human))	kinase still bound, per cent of control (DAPK3 (human))	kinase still bound, per cent of control [2]	kinase still bound, per cent of control (ICK (human))	kinase still bound, per cent of control (INSRR (human))	kinase still bound, per cent of control (IRAK3 (human))	kinase still bound, per cent of control [3]	kinase still bound, per cent of control (LCK (human))	also measured
O=c1[nH]c2ccccc2n1C1CCN(Cc2ccc(-c3nc4cc5[nH]cnc5cc4nc3-c3ccccc3)cc2)CC1	92%	100%	100%	68%	45%	84%	100%	100%	92%	100%	77%	18%	92%	85%	77%	91%	100%	100%	95%	72%	kinase still bound, per cent of control (LRRK2 (human)): 100%; kinase still bound, per cent of control (MAPK14 (human)): 88%; kinase still bound, per cent of control (MAPKAPK2 (human)): 100%; kinase still bound, per cent of control (MARK1 (human)): 97%; kinase still bound, per cent of control (MLTK (human)): 92%; kinase still bound, per cent of control (MYLK (human)): 57%; kinase still bound, per cent of control (MYLK4 (human)): 64%; kinase still bound, per cent of control (MYO3A (human)): 100%; kinase still bound, per cent of control (NEK2 (human)): 100%; kinase still bound, per cent of control (PAK2 (human)): 74%; kinase still bound, per cent of control (PIK3CA (human)): 77%; kinase still bound, per cent of control [4]: 100%; kinase still bound, per cent of control (PIK3CG (human)): 25%; kinase still bound, per cent of control (PRKAA1 (human)): 72%; kinase still bound, per cent of control (RPS6KA4 KD1 (human)): 100%; kinase still bound, per cent of control (SIK2 (human)): 85%; kinase still bound, per cent of control (TEK (human)): 85%; kinase still bound, per cent of control (TYRO3 (human)): 73%; kinase still bound, per cent of control (WEE2 (human)): 96%; kinase still bound, per cent of control (YES1 (human)): 100%
C=CC(=O)Nc1ccc(C(=O)c2sc(Nc3ccc(N4CCN(C)CC4)cc3OC)nc2N)cc1	100%	100%	73%	93%	100%	92%	98%	82%	75%	10%	86%	72%	37%	2.6%	61%	32%	78%	96%	100%	89%	kinase still bound, per cent of control (LRRK2 (human)): 5.2%; kinase still bound, per cent of control (MAPK14 (human)): 2.7%; kinase still bound, per cent of control (MAPKAPK2 (human)): 99%; kinase still bound, per cent of control (MARK1 (human)): 93%; kinase still bound, per cent of control (MLTK (human)): 100%; kinase still bound, per cent of control (MYLK (human)): 8.6%; kinase still bound, per cent of control (MYLK4 (human)): 66%; kinase still bound, per cent of control (MYO3A (human)): 35%; kinase still bound, per cent of control (NEK2 (human)): 100%; kinase still bound, per cent of control (PAK2 (human)): 68%; kinase still bound, per cent of control (PIK3CA (human)): 95%; kinase still bound, per cent of control [4]: 100%; kinase still bound, per cent of control (PIK3CG (human)): 96%; kinase still bound, per cent of control (PRKAA1 (human)): 100%; kinase still bound, per cent of control (RPS6KA4 KD1 (human)): 95%; kinase still bound, per cent of control (SIK2 (human)): 72%; kinase still bound, per cent of control (TEK (human)): 89%; kinase still bound, per cent of control (TYRO3 (human)): 100%; kinase still bound, per cent of control (WEE2 (human)): 100%; kinase still bound, per cent of control (YES1 (human)): 86%
CCN1CCN(Cc2ccc(NC(=O)c3ccc(C)c(/C=C/c4cnc5[nH]ccc5c4OC)c3)cc2C(F)(F)F)CC1	100%	98%	100%	97%	4.6%	0.05%	100%	72%	96%	74%	1.6%	38%	95%	99%	1.1%	99%	100%	65%	1.1%	0.15%	kinase still bound, per cent of control (LRRK2 (human)): 12%; kinase still bound, per cent of control (MAPK14 (human)): 0%; kinase still bound, per cent of control (MAPKAPK2 (human)): 100%; kinase still bound, per cent of control (MARK1 (human)): 94%; kinase still bound, per cent of control (MLTK (human)): 0.8%; kinase still bound, per cent of control (MYLK (human)): 90%; kinase still bound, per cent of control (MYLK4 (human)): 23%; kinase still bound, per cent of control (MYO3A (human)): 28%; kinase still bound, per cent of control (NEK2 (human)): 100%; kinase still bound, per cent of control (PAK2 (human)): 100%; kinase still bound, per cent of control (PIK3CA (human)): 100%; kinase still bound, per cent of control [4]: 84%; kinase still bound, per cent of control (PIK3CG (human)): 96%; kinase still bound, per cent of control (PRKAA1 (human)): 20%; kinase still bound, per cent of control (RPS6KA4 KD1 (human)): 50%; kinase still bound, per cent of control (SIK2 (human)): 30%; kinase still bound, per cent of control (TEK (human)): 0.1%; kinase still bound, per cent of control (TYRO3 (human)): 100%; kinase still bound, per cent of control (WEE2 (human)): 4.8%; kinase still bound, per cent of control (YES1 (human)): 0.65%
